Data published in patent US10913757B2, “Hydroxycinnamic derivatives, methods and uses thereof” (UNIVERSIDADE DO PORTO, priority 2016, dated 2021).

How the values were obtained:
[1] = Redox properties by differential pulse and cyclic voltammetry; format: physicochemical; conditions: for reversibility of the oxidation reaction: cyclic voltammetry, physiological pH; for Ep (redox potential): physiological pH (7.4), voltammetry
Procedure: In an embodiment, and as an example, AntiOxCINs redox properties were evaluated (Table 1). Redox potentials are correlated with the ability of an antioxidant to donate a hydrogen atom and/or an electron to a free radical.
However, for pyrogallol derivatives (AntiOxCIN4, AntiOxCIN5 and AntiOxCIN7), a significant decrease in redox potentials was observed (Ep=0.034-0.057 V) (Table 1).
The voltammograms presented a diffusion peak and an adsorption post-peak at a more anodic potential correspondent to the oxidation of dissolved and adsorbed forms of the compounds, respectively. The oxidation waves can be related to the oxidation process of the pyrogallol moiety. The cyclic voltammograms also show the presence of two overlapped anodic peaks. The anodic peaks appeared to correspond to irreversible processes as any distinct reduction wave was not seen on the cathodic sweep. The existence of the additional phenolic group in the pyrogallol systems, when compared with the catechol ones, seems to influence the stabilization of the semiquinone intermediate and in turn the oxidative mechanism.
In an embodiment, the electrochemical analytical data was obtained using a computer controlled potentiostat Autolab PGSTAT302N (Metrohm Autolab, Utrecht, Netherlands). Generally, cyclic voltammetry (CV) data was acquired at a scan rate of 50 mVs^−1. Differential pulse voltammetry (DPV) results were acquired at a step potential of 4 mV, pulse amplitude of 50 mV and scan rate of 8 mVs^−1. The electrochemical signals were monitored by the General Purpose Electrochemical System (GPES) version 4.9, software package. All electrochemical experiments were performed at room temperature in an electrochemical cell that was placed in a Faraday cage in order to minimize the contribution of background noise to the analytical signal.
In an embodiment, the process of evaluation of AntiOxCINs redox properties was conducted as follows: stock solutions of each compound (10 mM) were prepared by dissolving the appropriate amount in ethanol. The voltammetric working solutions were prepared in the electrochemical cell, at a final concentration of 0.1 mM. The […] supporting electrolyte was prepared by diluting […] to 100 mL. Voltammetric data was acquired in a three-electrode system consisting of a glassy carbon electrode (GCE, d=2 mm) as working electrode, a counter electrode of platinum wire and a saturated Ag/AgCl reference electrode. In an embodiment, the evaluation of AntiOxCINs lipophilic properties was performed as follows: the electrochemical cell was a four-electrode system with arrays of micro liquid-liquid interfaces (μlTIES) containing two Ag/AgCl reference electrodes and two counter electrodes of Pt, one in each phase. The microporous membrane was sealed with a fluorosilicone sealant (Dow Corning 730) onto a glass cylinder which was filled with 4.0 mL of the aqueous phase, where the aliquots of AntiOxCINs solutions were added. The membrane was then immersed into the organic phase contained in the cell. The organic phase reference solution (a 2 mM BTPPACI+2 mM NaCl aqueous solution) was mechanically stabilized The aqueous supporting electrolyte solution was a Tris-HCl buffer 10 mM pH 7.0.

[2] = tested on: rat liver mitochondria (RLM); assay: Mitochondrial respiration of isolated RLM (Clark-type oxygen electrode); format: biochemical; conditions: for effect on state 3 respiration: all tested concentrations (2.5-10 μM), FIG. 6B-H
Procedure: (§1) In an embodiment, and as an example, AntiOxCINs and MitoQ toxicity effects on the mitochondrial bioenergetics, namely on RLM ΔΨ and mitochondrial respiration parameters, were measured. The […] represents the main component of the electrochemical gradient generated by mitochondrial respiration and accounts for more than 90% of the total available energy. For mitochondrial respiration assays, glutamate/malate (for complex I) and succinate (for complex II) were used as substrates. In addition, the mitochondrial oxidative phosphorylation coupling index, known as respiratory control ratio (RCR, state 3/state 4 respiration) and ADP/O index (the coupling between ATP synthesis and oxygen consumption) were also calculated. AntiOxCINs and MitoQ were tested at antioxidant-relevant concentrations, with 10 μM being the highest concentration.
(§2) In an embodiment, the evaluation of AntiOxCINs functional mitochondrial toxicity profile was performed in rat liver mitochondria (RLM). […] The protein concentration was determined by the biuret assay using BSA as a standard.
In an embodiment, the evaluation of AntiOxCINs effect on mitochondrial respiration was performed as follows: the respiration of isolated RLM was evaluated polarographically with a Clark-type oxygen electrode, connected to a suitable recorder in a 1 mL thermostated water-jacketed chamber with magnetic stirring, at 37° C.^1. […] Increasing concentrations of AntiOxCINs (2.5-10 μM) were added to the reaction medium containing respiratory substrates glutamate/malate (10 mM and 5 mM respectively) or succinate (5 mM) and RLM (1 mg) and allowed to incubate for a 5 min period prior to the assay. State 2 was considered as the respiration during the 5 min incubation time with AntiOxCINs. […] State 4 was determined after ADP phosphorylation finished. Subsequent addition of oligomycin (2 μg/ml) inhibited ATP-synthase and originated the oligomycin-inhibition respiration state. Finally, 1 μM FCCP was added to induce uncoupled respiration.

[3] = tested on: rat liver mitochondria (RLM); assay: Mitochondrial transmembrane electric potential (ΔΨ) of RLM, safranine fluorescence; format: biochemical
Procedure: as §1, §2
Then, 1 μM FCCP was added at the end of all experiments to depolarize mitochondria. ΔΨ was calculated using a calibration curve obtained when RLM were incubated in a K^+-free reaction medium containing 200 mM sucrose, 1 mM NaH2PO4, 10 mM Tris (pH 7.4) and 10 μM EGTA, supplemented with 0.4 μg valinomicin. […] “Repolarization” corresponded to the recovery of membrane potential after the complete phosphorylation of ADP added. Lag phase reflected the time required to phosphorylate the added ADP. […] Data are means±SEM of five independent experiments.

CS(=O)(=O)[O-].O=C(/C=C/c1ccc(O)c(O)c1)NCCCCCC[P+](c1ccccc1)(c1ccccc1)c1ccccc1 [AntiOxCIN2, (E)-(6-(3-(3,4-dihydroxyphenyl)prop-2-enamido)hexyl)triphenylphosphonium methanesulfonate]
reversibility of the oxidation reaction [1]: reversible reaction
Ep (redox potential) ([1]; listed as AntiOxClN2, methanesulfonate): 0.164 V
effect on state 3 respiration [2]: decrease
ADP/O ([2]; glutamate/malate, 2.5 μM): 2.4 ± 0.04
RCR (respiratory control ratio, state 3/state 4) ([2]; glutamate/malate, 2.5 μM): 5.2 ± 1.0
ADP/O ([2]; glutamate/malate, 5 μM): 2.2 ± 0.1
RCR (respiratory control ratio, state 3/state 4) ([2]; glutamate/malate, 5 μM): 3.9 ± 0.6
ADP/O ([2]; glutamate/malate, 10 μM): 2.2 ± 0.1
RCR (respiratory control ratio, state 3/state 4) ([2]; glutamate/malate, 10 μM): 3.4 ± 0.3
ADP/O ([2]; succinate, 2.5 μM): 1.4 ± 0.1
RCR (respiratory control ratio, state 3/state 4) ([2]; succinate, 2.5 μM): 3.3 ± 0.2
ADP/O ([2]; succinate, 5 μM): 1.3 ± 0.1
RCR (respiratory control ratio, state 3/state 4) ([2]; succinate, 5 μM): 3.3 ± 0.2
ADP/O ([2]; succinate, 10 μM): 1.1 ± 0.1
RCR (respiratory control ratio, state 3/state 4) ([2]; succinate, 10 μM): 2.1 ± 0.2
ADP-induced depolarization (ΔΨ in - mV) ([3]; glutamate/malate, 2.5 μM): 186.2 ± 8.9 mV
Lag Phase ([3]; glutamate/malate, 2.5 μM): 81.2 ± 7.2 s
Maximum potential (ΔΨ in - mV) ([3]; glutamate/malate, 2.5 μM): 208.4 ± 10.1 mV
Repolarization Potential (ΔΨ in - mV) ([3]; glutamate/malate, 2.5 μM): 205.1 ± 9.0 mV
ADP-induced depolarization (ΔΨ in - mV) ([3]; glutamate/malate, 5 μM): 199.2 ± 13.3 mV
Lag Phase ([3]; glutamate/malate, 5 μM): 79.5 ± 7.0 s
Maximum potential (ΔΨ in - mV) ([3]; glutamate/malate, 5 μM): 214.8 ± 11.7 mV
Repolarization Potential (ΔΨ in - mV) ([3]; glutamate/malate, 5 μM): 214.0 ± 12.5 mV
ADP-induced depolarization (ΔΨ in - mV) ([3]; glutamate/malate, 10 μM): 193.3 ± 9.1 mV
Lag Phase ([3]; glutamate/malate, 10 μM): 88.7 ± 25.1 s
Maximum potential (ΔΨ in - mV) ([3]; glutamate/malate, 10 μM): 209.8 ± 9.4 mV
Repolarization Potential (ΔΨ in - mV) ([3]; glutamate/malate, 10 μM): 202.0 ± 8.0 mV
ADP-induced depolarization (ΔΨ in - mV) ([3]; succinate, 2.5 μM): 169.3 ± 4.0 mV
Lag Phase ([3]; succinate, 2.5 μM): 101.2 ± 7.5 s
Maximum potential (ΔΨ in - mV) ([3]; succinate, 2.5 μM): 190.5 ± 5.9 mV
Repolarization Potential (ΔΨ in - mV) ([3]; succinate, 2.5 μM): 191.5 ± 7.5 mV
ADP-induced depolarization (ΔΨ in - mV) ([3]; succinate, 5 μM): 174.9 ± 5.5 mV
Lag Phase ([3]; succinate, 5 μM): 64.6 ± 19.4 s
Maximum potential (ΔΨ in - mV) ([3]; succinate, 5 μM): 189.7 ± 8.0 mV
Repolarization Potential (ΔΨ in - mV) ([3]; succinate, 5 μM): 189.5 ± 9.0 mV
ADP-induced depolarization (ΔΨ in - mV) ([3]; succinate, 10 μM): 178.7 ± 6.3 mV
Lag Phase ([3]; succinate, 10 μM): 46.2 ± 12.4 s
Maximum potential (ΔΨ in - mV) ([3]; succinate, 10 μM): 190.0 ± 6.3 mV
Repolarization Potential (ΔΨ in - mV) ([3]; succinate, 10 μM): 186.6 ± 7.1 mV

CS(=O)(=O)[O-].O=C(/C=C/c1ccc(O)c(O)c1)NCCCCCCCCCC[P+](c1ccccc1)(c1ccccc1)c1ccccc1 [AntiOxCIN6, (E)-(10-(3-(3,4-dihydroxyphenyl)acrylamido)decyl)triphenylphosphonium methanesulfonate]
reversibility of the oxidation reaction [1]: reversible reaction
Ep (redox potential) ([1]; listed as AntiOxClN6, methanesulfonate): 0.174 V
effect on state 3 respiration [2]: increase
ADP/O ([2]; glutamate/malate, 2.5 μM): 2.5 ± 0.1
RCR (respiratory control ratio, state 3/state 4) ([2]; glutamate/malate, 2.5 μM): 3.1 ± 0.3
ADP/O ([2]; glutamate/malate, 5 μM): 2.5 ± 0.2
RCR (respiratory control ratio, state 3/state 4) ([2]; glutamate/malate, 5 μM): 3.3 ± 0.2
ADP/O ([2]; glutamate/malate, 10 μM): 2.3 ± 0.1
RCR (respiratory control ratio, state 3/state 4) ([2]; glutamate/malate, 10 μM): 2.6 ± 0.1
ADP/O ([2]; succinate, 2.5 μM): 1.5 ± 0.1
RCR (respiratory control ratio, state 3/state 4) ([2]; succinate, 2.5 μM): 3.7 ± 0.6
ADP/O ([2]; succinate, 5 μM): 1.5 ± 0.1
RCR (respiratory control ratio, state 3/state 4) ([2]; succinate, 5 μM): 3.2 ± 0.3
ADP/O ([2]; succinate, 10 μM): 1.6 ± 0.11
RCR (respiratory control ratio, state 3/state 4) ([2]; succinate, 10 μM): 2.6 ± 0.3
initial slight hyperpolarization ([3]; 2.5 μM): 10 mV
ΔΨ in succinate-energized mitochondria ([3]; AntiOxCIN6 above 5 μM, AntiOxCIN7 10 μM): significant decrease of ΔΨ
ADP-induced depolarization (ΔΨ in - mV) ([3]; glutamate/malate, 2.5 μM): 202.5 ± 5.7 mV
Lag Phase ([3]; glutamate/malate, 2.5 μM): 73.2 ± 8.8 s
Maximum potential (ΔΨ in - mV) ([3]; glutamate/malate, 2.5 μM): 237.9 ± 5.9 mV
Repolarization Potential (ΔΨ in - mV) ([3]; glutamate/malate, 2.5 μM): 233.3 ± 6.5 mV
ADP-induced depolarization (ΔΨ in - mV) ([3]; glutamate/malate, 5 μM): 197.9 ± 5.0 mV
Lag Phase ([3]; glutamate/malate, 5 μM): 75.2 ± 12.5 s
Maximum potential (ΔΨ in - mV) ([3]; glutamate/malate, 5 μM): 227.5 ± 6.5 mV
Repolarization Potential (ΔΨ in - mV) ([3]; glutamate/malate, 5 μM): 220.7 ± 6.2 mV
ADP-induced depolarization (ΔΨ in - mV) ([3]; glutamate/malate, 10 μM): 174.2 ± 16.8 mV
Lag Phase ([3]; glutamate/malate, 10 μM): 47.8 ± 8.7 s
Maximum potential (ΔΨ in - mV) ([3]; glutamate/malate, 10 μM): 200.5 ± 16.80 mV
Repolarization Potential (ΔΨ in - mV) ([3]; glutamate/malate, 10 μM): 185.3 ± 20.8 mV
ADP-induced depolarization (ΔΨ in - mV) ([3]; succinate, 2.5 μM): 166.8 ± 6.1 mV
Lag Phase ([3]; succinate, 2.5 μM): 77.8 ± 11.2 s
Maximum potential (ΔΨ in - mV) ([3]; succinate, 2.5 μM): 181.9 ± 6.2 mV
Repolarization Potential (ΔΨ in - mV) ([3]; succinate, 2.5 μM): 177.7 ± 4.5 mV
ADP-induced depolarization (ΔΨ in - mV) ([3]; succinate, 5 μM): 167.1 ± 5.7 mV
Lag Phase ([3]; succinate, 5 μM): 83.4 ± 11.5 s
Maximum potential (ΔΨ in - mV) ([3]; succinate, 5 μM): 178.3 ± 4.7 mV
Repolarization Potential (ΔΨ in - mV) ([3]; succinate, 5 μM): 178.1 ± 5.1 mV
ADP-induced depolarization (ΔΨ in - mV) ([3]; succinate, 10 μM): 143.6 ± 11.0 mV
Lag Phase ([3]; succinate, 10 μM): 62.2 ± 11.2 s
Maximum potential (ΔΨ in - mV) ([3]; succinate, 10 μM): 151.7 ± 9.3 mV
Repolarization Potential (ΔΨ in - mV) ([3]; succinate, 10 μM): 149.0 ± 11.2 mV
